Test results reported in US9670486B2, “RNAi-based method of screening and characterizing drug combinations” (Massachusetts Institute of Technology, priority 2011, dated 2017).

Columns and labels:
[1] = tested on: Eμ-Myc;p19Arf−/− lymphoma cells; conditions: for single drug cell death: single drug concentration used in the 17AAG-CBL combination
[2] = tested on: Eμ-Myc;p19Arf−/− lymphoma cells; test: 8-shRNA signature (GFP competition) with probabilistic nearest neighbors and PCA analysis; assay type: cell-based, mouse; conditions: shDNAPKcs, LD80-90

SMILES	single drug cell death [1] [%]	effect of diminution of DNAPKcs levels on drug response [2]	effect on 5-FU action [1]	cell death ([1]; leucovorin alone at 1 μM, lymphoma cells)
C=CCNC1=C2C[C@@H](C)C[C@H](OC)[C@H](O)[C@@H](C)/C=C(\C)[C@H](OC(N)=O)[C@@H](OC)/C=C\C=C(/C)C(=O)NC(=CC1=O)C2=O [17AAG]	~20			
O=C(O)CCCc1ccc(N(CCCl)CCCl)cc1 [CBL, Chlorambucil]	~20	resistance		
COc1cccc2c1C(=O)c1c(O)c3c(c(O)c1C2=O)C[C@@](O)(C(=O)CO)C[C@@H]3O[C@H]1C[C@H](N)[C@H](O)[C@H](C)O1 [Dox, doxorubicin]		sensitivity		
Nc1nc2c(c(=O)[nH]1)N(C=O)C(CNc1ccc(C(=O)N[C@@H](CCC(=O)O)C(=O)O)cc1)CN2 (stereo partly drawn) [leucovorin]			potentiated 5-FU action	no cell death
